Results from patent US11940444B2, “Method of stabilizing molecules without refrigeration using water soluble polymers and applications thereof in performing chemical reactions” (priority 2013, dated 2024).

Tests used:
[1] = Stability of 'all-in-one' luminescent pills at room storage condition; assay type: physicochemical
Experimental: All reagents for the luciferase assay except for adenosine triphospate (ATP) were casted in a single pullulan pill. For the pullulan pills aqueous solutions of 10 mM Luciferin, […], 27 mM Coenzyme A (CoA), 170 mM Dithiothreitol (DTT), 10 mM Ethylenediaminetetraacetic acid (EDTA), 107 mM MgCO3, and 267 mM MgSO4 were prepared. 200 μL of each solution was added to 8 mL of 12 w/v % Pullulan solution. Lastly, for each pill 47 μL of the final solution was pipetted onto a PET film and dried in a glove box under nitrogen. The casted pills were then stored at room temperature.
A buffer solution containing ATP was prepared to test the activity of the luciferase pills. For the buffer solution, 16 mL of water was added to 2 mL of 2.5 mM ATP and 2 mL of 200 mM Tricine and the pH was adjusted to pH 7.8.
Once the pills were completely dried, they were collected in dark bottles. The pills were stored at room temperature and the activity of the pills was tested over time. On the day the pills were prepared, the activity of the fresh pullulan and reagent solution was tested. 47 μL of the solution and 100 μL of the buffer were added to a 96 well-plate and the luminescence was measured using the TECAN M1000. On subsequent days, the activity of the pills was measured by placing a single pill into a well and 100 μL of ATP buffer. Each test was performed with three repeats.

AChE = AChE (Electrophorus electricus, UniProt O42275); assay: Pesticide tests in Eppendorf tubes (AChE/IDA color change); assay type: biochemical; settings: No. 1: malathion 10-2 mol/L, 5 μL AChE, 250 mg/mL pullulan, 30 μL, incubation 15 min
AChE, sequence (O42275 24-633): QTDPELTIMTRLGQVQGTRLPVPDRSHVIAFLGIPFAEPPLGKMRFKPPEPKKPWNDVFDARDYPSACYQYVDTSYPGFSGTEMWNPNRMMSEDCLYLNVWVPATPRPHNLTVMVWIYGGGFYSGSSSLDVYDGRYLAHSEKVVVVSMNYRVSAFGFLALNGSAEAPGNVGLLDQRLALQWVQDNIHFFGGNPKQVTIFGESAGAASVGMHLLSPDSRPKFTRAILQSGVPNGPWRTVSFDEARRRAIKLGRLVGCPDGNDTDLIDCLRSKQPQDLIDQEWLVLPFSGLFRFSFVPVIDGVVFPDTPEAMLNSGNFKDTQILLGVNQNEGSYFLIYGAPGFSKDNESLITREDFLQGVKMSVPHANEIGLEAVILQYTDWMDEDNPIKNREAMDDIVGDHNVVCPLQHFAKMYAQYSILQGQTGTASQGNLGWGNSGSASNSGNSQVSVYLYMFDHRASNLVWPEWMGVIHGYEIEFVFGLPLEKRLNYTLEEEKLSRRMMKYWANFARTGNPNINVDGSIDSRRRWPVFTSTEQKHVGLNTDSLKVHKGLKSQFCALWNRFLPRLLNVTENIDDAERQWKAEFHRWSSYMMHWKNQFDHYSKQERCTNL
Experimental: Three trials were conducted with fresh malathion (from Bioninterfaces Institute), which was diluted with Tris buffer to a concentration of 10-2 mol/L. A control sample was also done with 5 μL of AChE and 250 mg/mL pullulan to ensure that a color change would occur. The color change was initially green (˜2 minutes), then became a blue color which increased in intensity over time.
Information about the contents and the results of each Eppendorf tube test with pesticides is presented below. A control test was performed with 5 μL of AChE and L of dH2O with 5 μL of IDA/methanol, and the color change to blue-green was very quick.

Acetylcholinesterase = settings: Michaelis rate law, literature (Sadar and Laidler 1974); cited from earlier work
[2] = Comparison of AChE activity with different concentrations of pullulan after 2 weeks; assay type: physicochemical; settings: AChE in 125 and 250 mg/mL pullulan, 2 weeks age
Experimental: To determine the effect the concentration of pullulan has on the maintenance of the AChE enzyme two samples of 2 weeks age were tested (125 and 250 mg/mL). […] More trials will be conducted at 1 week intervals to determine if there is a noticeable color intensity difference over time.

[3] = AChE stability over time in pullulan (reaction rate with IDA, absorbance at 605 nm); assay type: physicochemical
Experimental: In order to quantify the protection that pullulan provides to AChE over time, it was attempted to create a set of samples (40) which will be tested over time. Each sample (cast into a 600 μL eppendorf tube) contains: • i. 40 μL of 200 mg/mL pullulan solution • ii. μL of AChE (250 U/L)
Each sample tube was allowed to dry, then was sealed and placed into a plastic bag and stored at ambient conditions (˜20° C.). At selected time points, the activity of the solution was tested by measuring absorbance over time, and finding the associated reaction rate (corresponding to the activity of the enzyme). To measure the activity, three (3) samples were taken (to establish triplicate repeats), and 195 μL of Tris buffer (100 mM, pH=8.0) was added to each Eppendorf tube and allowed to dissolve the […]. The resulting solution was then added to a 96 well plate, and absorbance was measured continuously at 605 nm after the addition of 5 μL of 80 mM IDA.

[4] = Long-term stability of AChE and IDA tablets stored at room temperature; assay type: physicochemical
Experimental: To test the ability of pullulan to retain IDA activity, 10 μL of 40 mM IDA and 40 μL of 120 g/L pullulan in water were mixed and casted in a polypropylene mold with wells with a size of 3 mm in diameter×3 mm in depth. The solution was air-dried overnight at 21° C. and 48% RH; tablet formation was considered not fully completed if the tablet could not be removed from the bottom of the well. […] To test IDA activity, 199 μL of Tris-HCl (100 mM, pH 8) was used to dissolve the pill and 1 μL of fresh 250 U/mL AChE was added. The solution was then transferred to a 96-well plate and the absorbance of the developing blue color was measured at A605 on a TECAN Infinite M200 Pro microtiter plate reader.
To test the ability of pullulan to retain AChE activity, 1 μL of 250 U/mL AChE and 40 μL of 120 g/L pullulan were mixed and casted into tablets. The solution was air-dried overnight at 21° C. and 48% RH; tablet formation was considered not fully completed if the tablet could not be removed from the bottom of the well; […] To test AChE activity, 195 μL of Tris-HCl (100 mM, pH 8) was used to dissolve the tablet and 5 μL of fresh 80 mM IDA was added. The solution was then transferred to a 96-well plate and the absorbance was measured at A605 on TECAN Infinite M200 Pro microtiter plate reader.

[5] = Loss of AChE activity as a function of temperature (30 min heat treatment); assay type: physicochemical; settings: 30-minute heat treatment at 50° C. or above
Experimental: To test the ability of pullulan to retain AChE activity, 1 μL of 250 U/mL AChE and 40 μL of 120 g/L pullulan were mixed and casted into tablets. The solution was air-dried overnight at 21° C. and 48% RH; tablet formation was considered not fully completed if the tablet could not be removed from the bottom of the well; and the resulting tablets were kept at room temperature for different lengths of time before being tested. To test AChE activity, 195 μL of Tris-HCl (100 mM, pH 8) was used to dissolve the tablet and 5 μL of fresh 80 mM IDA was added. The solution was then transferred to a 96-well plate and the absorbance was measured at A605 on TECAN Infinite M200 Pro microtiter plate reader.
The loss of AChE activity, however, is attributed to thermal denaturation. To further examine the role of pullulan in stabilizing AChE, activity of AChE was monitored as a function of temperature. For this experiment, native (unencapsulated) AChE and the corresponding pullulan tablet were treated at a given temperature for 30 min, followed by activity assessment at room temperature. […] In stark contrast, AChE tablets retained ca. 90% of their initial activity even after a 30-minute incubation at 90° C.

[6] = Testing IDA capsules and pullulan films (IDA protection); assay type: physicochemical
Experimental: 15 μL of IDA dissolved in methanol was added to a pullulan capsule (cast in an eppendorf tube lid), and sealed with a 5 mL (50 mg/mL, 3.5 cm petri dish) PVA film using a PVA glue solution. Another capsule was prepared with IDA in a powdered form. The capsules were left to determine if the PVA will serve as an oxygen barrier to protect the IDA from oxidation over a period of time
In order to determine if pullulan works to stabilize IDA when the IDA is mixed into the pullulan solution, a solution of 300 mg/mL pullulan was mixed, and 5 μL of IDA dissolved in methanol was added to each 30 μL of sample.
Five samples were cast (total volume of 35 μL) into the caps of 0.6 mL Eppendorf microcentrifuge tubes and left to dry. The activity of the IDA will be measured by: • i. checking for a pink/red color change, which indicates the IDA is hydrolysed or oxidized • ii. testing with AChE to ensure that a blue color change still results Pesticide Tests
Previously explored was the addition of IDA (solution and powder form) to two PVA capsules. 5 uL of IDA dissolved in methanol was added to one, and IDA in powder form was added to the other.
Also tested was one of the capsules with IDA solution cast into a pullulan film (in the lid of a 0.6 mL eppendorf tube). […]

Luciferase = target: T1, Luciferase (Photinus pyralis, UniProt P08659); assay: ATP detection assay with luminescent pills; assay type: biochemical, Firefly
T1 construct: purchased Sigma-Aldrich
T1 sequence (P08659 whole entry): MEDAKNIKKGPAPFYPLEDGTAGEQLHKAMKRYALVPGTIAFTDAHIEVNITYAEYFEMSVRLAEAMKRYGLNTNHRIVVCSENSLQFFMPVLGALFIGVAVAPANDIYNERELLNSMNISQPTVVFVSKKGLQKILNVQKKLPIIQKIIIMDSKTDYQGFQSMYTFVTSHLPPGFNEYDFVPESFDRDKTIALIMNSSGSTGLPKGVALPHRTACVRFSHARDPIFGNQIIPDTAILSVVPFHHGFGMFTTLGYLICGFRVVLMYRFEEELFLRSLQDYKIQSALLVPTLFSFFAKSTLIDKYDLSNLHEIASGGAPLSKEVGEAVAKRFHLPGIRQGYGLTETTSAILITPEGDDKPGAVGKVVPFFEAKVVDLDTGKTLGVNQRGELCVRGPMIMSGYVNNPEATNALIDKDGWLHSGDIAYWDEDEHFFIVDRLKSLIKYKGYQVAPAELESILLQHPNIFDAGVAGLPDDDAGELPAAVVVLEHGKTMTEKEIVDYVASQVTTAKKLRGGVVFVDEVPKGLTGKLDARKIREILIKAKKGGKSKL
Experimental: The sensitivity of the luciferase assay was also investigated. To determine the detection limit of the assay, different ATP buffers were prepared with concentration ranging from 0 pM to 1000 pM and tested it with luminescent pills.

[7] = ATCh stability (Ellman assay reagents); assay type: physicochemical; settings: several days in the refrigerator and in a fume hood with no protection
Experimental: When tested in solution, with the following amounts of reagents were used: • i. 15 uL ATCh (300 uM), 1 uL AChE (10 or 250 U/L) • ii. 50 uL of 500 uM DTNB • iii. 34 uL Tris
Acetylthiocholine (ATCh) is an unstable molecule, and will hopefully be stabilized on paper. However, after several tests were performed, it was noted that after being left in the refrigerator for several days, and left in a fume hood with no protection against hydrolyzation, the ATCh was still stable when tested. The most likely reason for the continued activity of the ATCh is due to the Tris buffer it was dissolved in being evaporated, and the ATCh in a solid (or powdered) form is stable. Accordingly, it should be reliable to store the ATCh as a powder form, preferably inside of a soluble (pullulan) capsule.

Molecule: Luciferase
- loss of activity in buffer ([1]; same components stored in buffer solution): loses its activity in buffer solution in few hours
- activity of enzyme alone in pullulan pills ([1]; stored at room temperature): active even after four months

Molecule: CCOC(=O)CC(SP(=S)(OC)OC)C(=O)OCC (centres unmarked) [malathion]
- Result (color change) (AChE): IDA/methanol. No color change at 5 minutes.

Molecule: CC(=O)Oc1cn(C)c2ccccc12 [N-methylindoxyl acetate]
- Km (Acetylcholinesterase): 2580 µM
- kc (Acetylcholinesterase): 320 s⁻¹

Molecule: Acetylcholinesterase [AChE]
- activity of the enzyme over two weeks [2]: not much decreased
- activity as compared to a fresh sample ([3]; AChE cast in 200 mg/mL pullulan, stored at ambient conditions (~20 °C), over 30 days): approximately 63%
- activity of AChE left out without pullulan ([3]; without any pullulan, left out for 24 hours): completely inactivated
- time to become completely inactive ([4]; stored in solution at room temperature): ≤ 3 days
- activity after heat treatment [5]: completely inactive

Molecule: indoxyl acetate [IDA]
- time protected from hydrolyzation/oxidation ([6]; IDA solution cast into a pullulan film): ~2 weeks
- IDA stability in PVA capsules ([6]; IDA solution or powder in PVA capsules, tested with AChE): kept stable over a period of two weeks
- complete inactivation ([4]; in solution at room temperature): completely inactive within a week
- loss of activity ([4]; in solution at room temperature, within one day): 70%

Molecule: Nc1ncnc2c1ncn2[C@@H]1O[C@H](COP(=O)(O)OP(=O)(O)OP(=O)(O)O)[C@@H](O)[C@H]1O [ATP, Adenosine triphosphate]
- limit of detection of ATP concentration (Luciferase; at 3a above background, tricine buffer): 16 pM
- limit of detection as amount of ATP (Luciferase; in 100 uL added to the pill): 1.6 fmol

Molecule: CC(=O)SCC[N+](C)(C)C [ATCh, Acetylthiocholine]
- stability of ATCh [7]: still stable
